The supplement of paper PMC10307832

What was measured:
Assay in all cases: relative viability (nuclei count vs DMSO), 5 days (fraction); higher = more cells survive
ChaGo-K-1 = tested on: ChaGo-K-1
Procedure, shortened: (§1)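 Cells from lung cancer lines were seeded into 1536-well plates and, one day later, dosed by pin tool. Treatments were either a single drug or a fixed dose of an anchor drug with five library-drug doses (not always all listed) in √10 steps. After 5 days, nuclei were stained in a one-step fixation (final 0.05% Triton X-100, 1% formaldehyde, 1 ug/ml Hoechst) and counted on 4× images, and relative viability is the treated-to-vehicle nuclei ratio, as the median of duplicate plates.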

NCI-H1793 = tested on: NCI-H1793
Procedure, shortened: as §1

LCLC-103H = tested on: LCLC-103H
Procedure, shortened: as §1

NCI-H2170 = tested on: NCI-H2170
Procedure, shortened: as §1

NCI-H460 = tested on: NCI-H460
Procedure, shortened: as §1

HCC-44 = tested on: HCC-44
Procedure, shortened: as §1

NCI-H650 = tested on: NCI-H650
Procedure, shortened: as §1

NCI-H2347 = tested on: NCI-H2347
Procedure, shortened: as §1

NCI-H2023 = tested on: NCI-H2023
Procedure, shortened: as §1

NCI-H441 = tested on: NCI-H441
Procedure, shortened: as §1

EPLC-272H = tested on: EPLC-272H
Procedure, shortened: as §1

Structure (SMILES): O=C(O)CCCCC(CCSCc1ccccc1)SCc1ccccc1 (stereo not given) [CPI-613] + Nc1nc2[nH]cc(CCc3ccc(C(=O)N[C@@H](CCC(=O)O)C(=O)O)cc3)c2c(=O)[nH]1 [Pemetrexed] (partner 0.2 µM)
- relative viability (ChaGo-K-1; first compound 5 µM): 0.269
- relative viability (ChaGo-K-1; first compound 15.81 µM): 0.261
- relative viability (ChaGo-K-1; first compound 50 µM): 0.264
- relative viability (ChaGo-K-1; first compound 158.11 µM): 0.248
- relative viability (ChaGo-K-1; first compound 500 µM): 0.187
- relative viability (NCI-H1793; first compound 5 µM): 0.895
- relative viability (NCI-H1793; first compound 15.81 µM): 0.71
- relative viability (NCI-H1793; first compound 50 µM): 0.832
- relative viability (NCI-H1793; first compound 158.11 µM): 0.378
- relative viability (NCI-H1793; first compound 500 µM): 0.0257
- relative viability (LCLC-103H; first compound 5 µM): 0.514
- relative viability (LCLC-103H; first compound 15.81 µM): 0.462
- relative viability (LCLC-103H; first compound 50 µM): 0.414
- relative viability (LCLC-103H; first compound 158.11 µM): 0.452
- relative viability (LCLC-103H; first compound 500 µM): 0.272
- relative viability (NCI-H2170; first compound 5 µM): 0.278
- relative viability (NCI-H2170; first compound 15.81 µM): 0.251
- relative viability (NCI-H2170; first compound 50 µM): 0.244
- relative viability (NCI-H2170; first compound 158.11 µM): 0.26
- relative viability (NCI-H2170; first compound 500 µM): 0.227
- relative viability (NCI-H460; first compound 5 µM): 0.0641
- relative viability (NCI-H460; first compound 15.81 µM): 0.0607
- relative viability (NCI-H460; first compound 50 µM): 0.0741
- relative viability (NCI-H460; first compound 158.11 µM): 0.0795
- relative viability (NCI-H460; first compound 500 µM): 0.0168
- relative viability (HCC-44; first compound 5 µM): 0.635
- relative viability (HCC-44; first compound 15.81 µM): 0.61
- relative viability (HCC-44; first compound 50 µM): 0.592
- relative viability (HCC-44; first compound 158.11 µM): 0.622
- relative viability (HCC-44; first compound 500 µM): 0.53
- relative viability (NCI-H650; first compound 5 µM): 1.01
- relative viability (NCI-H650; first compound 15.81 µM): 0.821
- relative viability (NCI-H650; first compound 50 µM): 0.897
- relative viability (NCI-H650; first compound 158.11 µM): 0.641
- relative viability (NCI-H650; first compound 500 µM): 0.826
- relative viability (NCI-H2347; first compound 5 µM): 0.413
- relative viability (NCI-H2347; first compound 15.81 µM): 0.434
- relative viability (NCI-H2347; first compound 50 µM): 0.405
- relative viability (NCI-H2347; first compound 158.11 µM): 0.383
- relative viability (NCI-H2347; first compound 500 µM): 0.419
- relative viability (NCI-H2023; first compound 5 µM): 0.233
- relative viability (NCI-H2023; first compound 15.81 µM): 0.2
- relative viability (NCI-H2023; first compound 50 µM): 0.175
- relative viability (NCI-H2023; first compound 158.11 µM): 0.0911
- relative viability (NCI-H2023; first compound 500 µM): 0.0103
- relative viability (NCI-H441; first compound 5 µM): 0.266
- relative viability (NCI-H441; first compound 15.81 µM): 0.242
- relative viability (NCI-H441; first compound 50 µM): 0.236
- relative viability (NCI-H441; first compound 158.11 µM): 0.151
- relative viability (NCI-H441; first compound 500 µM): 0.0045
- relative viability (EPLC-272H; first compound 5 µM): 0.324
- relative viability (EPLC-272H; first compound 15.81 µM): 0.289
- relative viability (EPLC-272H; first compound 50 µM): 0.318
- relative viability (EPLC-272H; first compound 158.11 µM): 0.206
- relative viability (EPLC-272H; first compound 500 µM): 0.05
